pIC50: −log10 of the molar value. Counter-ions that a name gives are not always drawn.
Molecular target: T1, NO-Synthase (iNOS) (Mus musculus, UniProt P29477)
T1 construct: Während der Stimulation über 4 Stunden wird die Neusynthese des NO-produzierenden Enzyms NO-Synthase (iNOS) induziert; endogenous in cells; host or cells: RAW 264.7 mouse macrophages stimulated with LPS and γ-interferon
Assay: NO measurement by oxyhaemoglobin on LPS/γ-interferon-stimulated macrophages (inhibition of NO release)
Assay type: cell-based, Maus
Conditions: Mäusemakrophagen RAW 264.7, stimulated 4 h with 140 ng LPS/ml + 5 U γIFN/ml; 120 min incubation with test substance; Extinktionsdifferenz 576-592 nm vs. stimulation control
Procedure: Die Hemmung der NO-Freisetzung durch die Verbindungen der allgemeinen Formel I kann auch durch NO-Messung mittels Oxyhämoglobin auf Makrophagen wie folgt bestimmt werden: Mäusemakrophagen (MM) des Stammes RAW 264.7 werden in Petrischalen (10 cm Durchmesser) angezüchtet. Als Nährmedium wird DMEM (Fa. Sigma Nr. D 5405), konditioniert mit 4 mM l-Glutamin, 3,5 g D-Glukose/l, 50 U/50 µg/ml Pen/Strep und 10 % FKS, eingesetzt unter 5 % CO2, 95 % Luftfeuchtigkeit, 37°C. Die subkonfluenten Zellen werden mit dem Zellschaber abgekratzt, in Medium aufgenommen, die Zellzahl bestimmt (Zählung in Trypanblaulösung 0,2 %) und in 24-Napfplatten (1 x 10^6 Zellen/ml, 1 ml/Napf) ausgesät.
Ca. 18 Stunden nach Aussaat werden die gut adherierten Mausmakrophagen mit LPS (Lipopolysaccharid von E. coli Serotyp 0111:B4, Fa. Sigma Nr. L 2630) und γ-Interferon (γIFN, Maus rekombinant, Firma Boehringer Mannheim Nr. 1276905) stimuliert. Dazu wird das Kulturmedium von den Zellen abgesaugt und 1 ml/Napf (24-Napfplatte) Inkubationsmedium (MEM ohne Phenolrot (Biochrom F0385)), konditioniert mit 4mM Glutamin, 3,5 g Glukose/l, 3,7 g NaHCO3/l, 110 mg Natriumpyruvat/l, 50 U/50 µg/ml Pen/Strep und 5 % FKS, aufgegeben. Pro ml Inkubationsmedium werden 1 µl LPS und 1 µl γIFN pipettiert.
Daraus ergeben sich folgende Konzentrationen der Stimulatoren: 140 ng LPS/ml + 5 U γIFN/ml [formula] […]

pIC50: 5.89
SMILES: NC1=NCCCCS1 [Beispiel 1, 2-Amino-4,5,6,7-tetrahydro-1,3-thiazepin-Hydrochlorid]
